# Measurements from patent US12162881B2, “Forms and compositions of inhibitors of JAK2” (Ajax Therapeutics, Inc., priority 2021, dated 2024).
# Columns and labels:
# [1] = Disproportionation of Compound 2 (HCl salt) stirred in water; type: physicochemical; details: Form A obtained by disproportionation of Compound 2 in water (Example 11)
# Method: An exemplary procedure for preparing Compound 1 Form A is as follows: Compound 1 Lot II (459.1 mg) was slurried in THF (4 mL). Concentrated HCl (154 μL, 2 equiv.) was added to the slurry. The off-white slurry rapidly changed to a yellow slurry. The slurry was stirred at ambient temperature for 1 day. Solids were collected by vacuum filtration and briefly dried under vacuum. The yellow material, assumed to be an HCl salt, was collected by vacuum filtration. The material (543.2 mg) was then suspended in H2O (5 mL) and stirred at ambient temperature for 2 days. Pale yellow solids were collected by vacuum filtration but appeared to still contain some HCl salt by XRPD. Solids were re-slurried in H2O (1 mL) at ambient temperature for additional 3 days. The off-white solids were collected by vacuum filtration and dried on filter until solids were no longer visibly damp.
# [2] = Variable relative humidity XRPD (VRH-XRPD); type: physicochemical
# Method: XRPD patterns were collected with a PANalytical X'Pert PRO MPD diffractometer using an incident beam of Cu Kα radiation produced using a long, fine-focus source and a nickel filter. The diffractometer was configured using the symmetric Bragg-Brentano geometry. Data were collected and analyzed using Data Collector software v. 5.5. Prior to the analysis, a silicon specimen (NIST SRM 640f) was analyzed to verify the observed position of the Si 111 peak is consistent with the NIST-certified position. A specimen of the sample was packed in a nickel-coated copper well. Antiscatter slits (SS) were used to minimize the background generated by air. Soller slits for the incident and diffracted beams were used to minimize broadening from axial divergence. Diffraction patterns were collected using a scanning position-sensitive detector (X'Celerator) located 240 mm from the sample and Data Collector software v. 5.5.
# An Anton Paar temperature-humidity chamber (THC) was used while collecting in-situ XRPD patterns as a function of humidity. The temperature of the specimen was changed with a Peltier thermoelectric device located directly under the specimen holder and monitored with a platinum-100 resistance sensor located in the specimen holder. The thermoelectric device was powered and controlled by an Anton Paar TCU 50 interfaced with Data Collector. The humidity was generated with an RH-200 manufactured by VTI Inc. and carried by a flow of nitrogen gas. The humidity was monitored by a HygroClip sensor manufactured by Rotronic located next to the specimen inside the THC.
# VRH-XRPD analysis was conducted to help determine water activity boundary for the solid-state conversion between hydrated Form A and anhydrous Form B. This method was utilized due the observed high tendency of Compound 1 to form solvates, which precluded the use of solvent-mediated approach.
# Overall, two VRH-XRPD experiments were conducted to qualitatively evaluate RH conditions leading to predominance of Form A over Form B and vice versa. The kinetic component was not assessed.
# The first VRH-XRPD experiment was conducted with a goal of observing dehydration of hydrated Form A. An initial XRPD scan was, therefore, acquired on Form A equilibrated in-situ at ambient RH for 45 minutes, which at the time of the analysis was ˜30%. The XRPD pattern from this scan was consistent with Form A (FIG. 39, top).
# XRPD patterns were collected throughout the course of the experiment, each with a 10 minute scan.
# XRPD patterns were collected throughout the course of the experiment, each with a 10 minute scan. The XRPD patterns remained Form B until the RH reached approximately 60% RH, where Form A became the primary phase with some Form B remaining (FIG. 41, top two spectra). Further decrease of Form B was observed through the remainder of the 60% RH hold at which point the experiment ended (FIG. 41, bottom two spectra). Complete conversion to Form A from Form B was not observed under these conditions.
# [3] = target: T1, JAK2 (JH1domain-catalytic, Y1007F,Y1008F) kinase (Homo sapiens, UniProt O60674, Y1007F/Y1008F); test: JAK2 Binding Assay; details: Compound 1 as prepared by Example 1
# T1 construct: JAK2 (JH1domain-catalytic, Y1007F,Y1008F) kinase was expressed as N-terminal fusion; made in house; host or cells: transiently transfected HEK293 cells
# T1 sequence (O60674 849-1124 Y1007F/Y1008F limits assumed): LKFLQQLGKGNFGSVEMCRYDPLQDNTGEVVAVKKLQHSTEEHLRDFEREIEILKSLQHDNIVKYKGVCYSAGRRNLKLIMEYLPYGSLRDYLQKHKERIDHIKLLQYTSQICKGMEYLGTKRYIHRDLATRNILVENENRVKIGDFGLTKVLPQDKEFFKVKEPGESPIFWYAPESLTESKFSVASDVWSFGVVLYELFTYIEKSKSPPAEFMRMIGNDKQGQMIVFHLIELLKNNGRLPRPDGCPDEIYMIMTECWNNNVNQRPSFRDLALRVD
# Method: JAK2 (JH1domain-catalytic, Y1007F,Y1008F) kinase was expressed as N-terminal fusion to the DNA binding domain of NFkB in transiently transfected HEK293 cells and subsequently tagged with DNA for qPCR detection. Streptavidin-coated magnetic beads were treated with biotinylated small molecule ligands for 30 minutes at room temperature to generate affinity resins for kinase assays. The liganded beads were blocked with excess biotin and washed with blocking buffer (SeaBlock (Pierce), 1% BSA, 0.05% Tween 20, 1 mmol/L DTT) to remove unbound ligand and to reduce nonspecific phage binding. Binding reactions were assembled by combining kinases, liganded affinity beads, and test compounds in 1× binding buffer (1×PBS, 0.05% Tween 20, 0.1% BSA, 1 mmol/L DTT). Test compound was prepared as 111× stocks in 100% DMSO and directly diluted into the assay wells. All reactions were performed in polypropylene 384-well plates in a final volume of 0.02 mL. The assay plates were incubated at room temperature with shaking for 1 hour and the affinity beads were washed with wash buffer (1×PBS, 0.05% Tween 20). The beads were then re-suspended in elution buffer (1×PBS, 0.05% Tween 20, 0.5 μmol/L non-biotinylated affinity ligand) and incubated at room temperature with shaking for 30 minutes. The kinase concentration in the eluate was measured by qPCR.
# [4] = Relative humidity jar experiments (XRPD); type: physicochemical
# Method: Relative humidify jar experiments: Solid Compound 1 was placed in relative humidity jars containing saturated solutions of various salts to maintain a desired relative humidity level at 25° C. One sample of Compound 1 was placed in a jar containing P205 in an effort to maintain 0% RH.
# [5] = Drying experiments of solvated Compound 1 materials (vacuum oven, XRPD); type: physicochemical; details: vac., 1 d
# Method: Drying experiments: Damp and solvated Compound 1 materials were placed in vacuum ovens set to ambient temperature or 80° C. for 1 day. Dried solids were analyzed by XRPD.
compound,measurement,setting,value
"CC(=O)Nc1cc(Oc2cnc3nc(Nc4cc(C(F)(F)F)cn(C)c4=O)n(C)c3c2C#N)ccn1 [Compound 1 Form A, N-(4-((7-cyano-1-methyl-2-((1-methyl-2-oxo-5-(trifluoromethyl)-1,2-dihydropyridin-3-yl)amino)-1H-imidazo[4,5-b]pyridin-6-yl)oxy)pyridin-2-yl)acetamide]",Stability relative to Compound 2,[1],superior stability
same,RH at which a small amount of Form B became visible,"[2]; Experiment 1, RH incrementally decreased from ~85%",approximately 21 % RH
same,RH at which Form A was no longer visible,"[2]; Experiment 1, decreasing RH",~5 % RH
same,RH at which Form B became the predominant phase,"[2]; Experiment 1, decreasing RH",11 % RH
same,RH at which dehydration is expected to begin,[2]; VRH-XRPD and DVS data combined,20 % RH
same,Form change on hold under nitrogen stream,[2]; overnight (17 h) hold under nitrogen stream (~0% RH),converted to Form B
"CC(=O)Nc1cc(Oc2cnc3nc(Nc4cc(C(F)(F)F)cn(C)c4=O)n(C)c3c2C#N)ccn1 [Compound 1, N-(4-((7-cyano-1-methyl-2-((1-methyl-2-oxo-5-(trifluoromethyl)-1,2-dihydropyridin-3-yl)amino)-1H-imidazo[4,5-b]pyridin-6-yl)oxy)pyridin-2-yl)acetamide]",Kd,[3],< 10 nM
same,XRPD Results after RH stress,"[4]; 23% RH, RT, 6 d",B + minor A
same,XRPD Results after RH stress,"[4]; 43% RH, RT, 6 d",A + B
same,XRPD Results after RH stress,"[4]; 54% RH, RT, 6 d",A + B
same,XRPD Results after RH stress,"[4]; P2O5 jar, 0% RH RT, 12 d",B + peaks
"CC(=O)Nc1cc(Oc2cnc3nc(Nc4cc(C(F)(F)F)cn(C)c4=O)n(C)c3c2C#N)ccn1 [Compound 1 Form D, N-(4-((7-cyano-1-methyl-2-((1-methyl-2-oxo-5-(trifluoromethyl)-1,2-dihydropyridin-3-yl)amino)-1H-imidazo[4,5-b]pyridin-6-yl)oxy)pyridin-2-yl)acetamide]",XRPD Result after drying,[5]; 80° C.,Form D + peaks (some disorder)
same,XRPD Result after drying,"[5]; RT, listed as Form D",Form D^a
"CC(=O)Nc1cc(Oc2cnc3nc(Nc4cc(C(F)(F)F)cn(C)c4=O)n(C)c3c2C#N)ccn1 [Compound 1 Form F, N-(4-((7-cyano-1-methyl-2-((1-methyl-2-oxo-5-(trifluoromethyl)-1,2-dihydropyridin-3-yl)amino)-1H-imidazo[4,5-b]pyridin-6-yl)oxy)pyridin-2-yl)acetamide]",XRPD Result after drying,"[5]; RT, listed as Form F",Form F
